From US20260042764A1, “COMPOSITIONS AND METHODS FOR INHIBITION OF KRAS” (TheRas, Inc., priority 2022, published 2026) come the findings set out here.

For assay [1], the target named is T1, Avi-KRAS G12D (1-169) GppNHp/RAF1 RBD-3xFLAG (52-151) (Homo sapiens, UniProt P01116, G12D).
T1 construct: Avi-KRAS G12D (1-169)
As to the kind of experiment: Raf1-KRAS G12D-GppNHP disruption HTRF assay (Biological Example 1). It counts as binding. The following applies: KRAS G12D, GppNHp-loaded; Table 11. Summed up: (§1)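 Protein mix, 1 h RT, 700 rpm; reagent mix, 1 h RT, 700 rpm; HTRF read. Buffer Tris pH 7.5/NaCl/MgCl2/BSA/Tween, 10% DMSO. Output % activity, DMSO = 100%.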
In general terms: In TR-FRET formats the signal depends on donor and acceptor labels being close together.

Assay [2] has as its target T2, Avi-KRAS G12R (1-169) GppNHp/RAF1 RBD-3xFLAG (52-151) (Homo sapiens, UniProt P01116, G12R).
T2 construct: Avi-KRAS G12R (1-169)
As to the kind of experiment: Raf1-KRAS G12R-GppNHP disruption HTRF assay (Biological Example 1). The following applies: KRAS G12R, GppNHp-loaded; Table 11. The class given is binding. Summed up:
as §1

The target of assay [3] is T3, Avi-KRAS G12V (1-169) GppNHp/RAF1 RBD-3xFLAG (52-151) (Homo sapiens, UniProt P01116, G12V).
T3 construct: Avi-KRAS G12V (1-169)
As to the kind of experiment: Raf1-KRAS G12V-GppNHP disruption HTRF assay (Biological Example 1). The class given is binding. The conditions noted are these: KRAS G12V, GppNHp-loaded; Table 11. Summed up: as §1

The target of assay [4] is T4, Avi-KRAS WT (1-169) GppNHp/RAF1 RBD-3xFLAG (52-151) (Homo sapiens, UniProt P01116).
T4 construct: Avi-KRAS WT (1-169)
As to the kind of experiment: Raf1-KRAS WT-GppNHP disruption HTRF assay (Biological Example 1). It counts as binding. The conditions noted are these: KRAS WT, GppNHp-loaded; Table 11. Summed up:
as §1

For assay [5], the system named is GP2d cells (KRAS G12D). As to the kind of experiment: Cell-based pERK HTRF assay in GP2d cell (Biological Example 2). The conditions noted are these: GP2d (KRAS G12D) cells, pERK HTRF. Summed up:
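60 min compound, 0.25% DMSO, 9-pt half-log curve from 1 μM or 100 nM; DMEM/10% FBS.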

The term IC50 denotes the concentration that gives 50% inhibition. Higher therefore signals weaker potency.

Bounds are passed on as bounds.

T2 sequence (P01116 1-169 isoform P01116-2 G12R): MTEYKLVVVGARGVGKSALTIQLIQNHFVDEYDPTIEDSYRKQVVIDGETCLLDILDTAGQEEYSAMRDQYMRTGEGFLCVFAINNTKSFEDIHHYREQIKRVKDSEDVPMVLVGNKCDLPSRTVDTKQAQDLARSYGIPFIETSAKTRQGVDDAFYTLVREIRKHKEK
T4 sequence (P01116 1-169 isoform P01116-2): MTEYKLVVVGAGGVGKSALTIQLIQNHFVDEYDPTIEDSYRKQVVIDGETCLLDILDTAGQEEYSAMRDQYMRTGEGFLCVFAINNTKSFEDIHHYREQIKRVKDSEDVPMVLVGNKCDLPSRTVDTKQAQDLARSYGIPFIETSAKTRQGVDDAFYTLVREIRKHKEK
T1 sequence (P01116 1-169 isoform P01116-2 G12D): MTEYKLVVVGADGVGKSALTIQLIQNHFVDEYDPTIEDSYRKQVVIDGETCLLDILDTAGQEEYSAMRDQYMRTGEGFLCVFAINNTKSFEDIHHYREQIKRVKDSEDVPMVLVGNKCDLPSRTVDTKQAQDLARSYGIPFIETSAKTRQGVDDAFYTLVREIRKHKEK
T3 sequence (P01116 1-169 isoform P01116-2 G12V): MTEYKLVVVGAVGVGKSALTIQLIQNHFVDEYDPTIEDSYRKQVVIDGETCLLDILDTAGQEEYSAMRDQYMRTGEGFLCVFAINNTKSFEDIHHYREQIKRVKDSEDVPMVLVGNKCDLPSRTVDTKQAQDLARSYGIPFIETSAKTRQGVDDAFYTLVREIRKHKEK

On to `C[C@H](O)C1CCN(c2nc(OC[C@@]34CCCN3C[C@H](F)C4)nc3c(F)c(-c4ccc(F)c5sc(N)c(C#N)c45)c(C(F)(F)F)cc23)CC1` [Compound 50], for which the IC50 in assay [1] is 0.1 to 1 µM; in assay [2], 1 to 10 µM; in assay [3], 1 to 10 µM; in assay [4] it was 0.1 to 1 µM; in assay [5] (GP2d), 0.1 to 1 µM.

As for `CN(c1nc(OC[C@@]23CCCN2C[C@H](F)C3)nc2c(F)c(-c3ccc(F)c4sc(N)c(C#N)c34)c(C(F)(F)F)cc12)C1CCC(O)CC1` (some centres unmarked) [Compound 65], the IC50 in assay [1] is 0.1 to 1 µM; in assay [2] it was 0.1 to 1 µM; in assay [3], 0.1 to 1 µM; in assay [4] it was 0.1 to 1 µM; in assay [5] (GP2d) it was under 0.1 µM.

In the case of `CN(c1nc(OC[C@@]23CCCN2C[C@H](F)C3)nc2c(F)c(-c3ccc(F)c4sc(N)c(C#N)c34)c(C(F)(F)F)cc12)C1CCC(O)CC1` (some centres unmarked) [Compound 66], the IC50 in assay [1], in assay [2], in assay [3], in assay [4] and in assay [5] was 0.1 to 1 µM each time.

On to `CN(CCO)c1nc(OC[C@@]23CCCN2C[C@H](F)C3)nc2c(F)c(-c3ccc(F)c4sc(N)c(C#N)c34)c(C(F)(F)F)cc12` [Compound 70, 2-amino-7-fluoro-4-(8-fluoro-2-(((2R,7aS)-2-fluorotetrahydro-1H-pyrrolizin-7a(5H)-yl)methoxy)-4-((2-hydroxyethyl)(methyl)amino)-6-(trifluoromethyl)quinazolin-7-yl)benzo[b]thiophene-3-carbonitrile], for which the IC50 in assay [1] was under 0.1 µM; in assay [2], 0.1 to 1 µM; in assay [3], 0.1 to 1 µM; in assay [4] it was 0.1 to 1 µM; in assay [5] (GP2d), under 0.1 µM.

In the case of `C[C@@H](O)CN(C)c1nc(OC[C@@]23CCCN2C[C@H](F)C3)nc2c(F)c(-c3ccc(F)c4sc(N)c(C#N)c34)c(C(F)(F)F)cc12` [Compound 71], the IC50 in assay [1] is under 0.1 µM; in assay [2], 0.1 to 1 µM; in assay [3], 0.1 to 1 µM; in assay [4], 0.1 to 1 µM; in assay [5] (GP2d), under 0.1 µM.

On to `C[C@H](O)CN(C)c1nc(OC[C@@]23CCCN2C[C@H](F)C3)nc2c(F)c(-c3ccc(F)c4sc(N)c(C#N)c34)c(C(F)(F)F)cc12` [Compound 72], for which the IC50 in assay [1] was under 0.1 µM; in assay [2], 0.1 to 1 µM; in assay [3], 0.1 to 1 µM; in assay [4], 0.1 to 1 µM; in assay [5] (GP2d) it was under 0.1 µM.

Turning to `CN(CCCO)c1nc(OC[C@@]23CCCN2C[C@H](F)C3)nc2c(F)c(-c3ccc(F)c4sc(N)c(C#N)c34)c(C(F)(F)F)cc12` [Compound 73], the IC50 was 0.1 to 1 µM in assay [1]; 0.1 to 1 µM in assay [2]; 0.1 to 1 µM in assay [3]; 0.1 to 1 µM in assay [4]; under 0.1 µM in assay [5] (GP2d).

With `CCN(CCO)c1nc(OC[C@@]23CCCN2C[C@H](F)C3)nc2c(F)c(-c3ccc(F)c4sc(N)c(C#N)c34)c(C(F)(F)F)cc12` [Compound 74], the IC50 in assay [1], in assay [2], in assay [3], in assay [4] and in assay [5] (GP2d) was under 0.1 µM in each case.

As to `C[C@H](CO)N(C)c1nc(OC[C@@]23CCCN2C[C@H](F)C3)nc2c(F)c(-c3ccc(F)c4sc(N)c(C#N)c34)c(C(F)(F)F)cc12` [Compound 76], the IC50 was under 0.1 µM in assay [1]; 0.1 to 1 µM in assay [2]; 0.1 to 1 µM in assay [3]; 0.1 to 1 µM in assay [4]; under 0.1 µM in assay [5] (GP2d).

Regarding `C[C@@H](CO)N(C)c1nc(OC[C@@]23CCCN2C[C@H](F)C3)nc2c(F)c(-c3ccc(F)c4sc(N)c(C#N)c34)c(C(F)(F)F)cc12` [Compound 77], the IC50 in assay [1] is under 0.1 µM; in assay [2] it was 0.1 to 1 µM; in assay [3] it was 0.1 to 1 µM; in assay [4] it was 0.1 to 1 µM; in assay [5] (GP2d), under 0.1 µM.

Regarding `CN(C[C@@H](O)CO)c1nc(OC[C@@]23CCCN2C[C@H](F)C3)nc2c(F)c(-c3ccc(F)c4sc(N)c(C#N)c34)c(C(F)(F)F)cc12` [Compound 78], the IC50 was under 0.1 µM in assay [1]; 0.1 to 1 µM in assay [2]; 0.1 to 1 µM in assay [3]; 0.1 to 1 µM in assay [4]; under 0.1 µM in assay [5] (GP2d).

In the case of `CN(C[C@H](O)CO)c1nc(OC[C@@]23CCCN2C[C@H](F)C3)nc2c(F)c(-c3ccc(F)c4sc(N)c(C#N)c34)c(C(F)(F)F)cc12` [Compound 79], the IC50 was under 0.1 µM in assay [1]; 0.1 to 1 µM in assay [2]; 0.1 to 1 µM in assay [3]; 0.1 to 1 µM in assay [4]; under 0.1 µM in assay [5] (GP2d).

Consider `CN(c1nc(OC[C@@]23CCCN2C[C@H](F)C3)nc2c(F)c(-c3ccc(F)c4sc(N)c(C#N)c34)c(C(F)(F)F)cc12)C(CO)CO` [Compound 80], for which the IC50 in assay [1] was under 0.1 µM; in assay [2], 0.1 to 1 µM; in assay [3], 0.1 to 1 µM; in assay [4], 0.1 to 1 µM; in assay [5] (GP2d) it was under 0.1 µM.

Regarding `CCN(C)c1nc(OC[C@@]23CCCN2C[C@H](F)C3)nc2c(F)c(-c3ccc(F)c4sc(N)c(C#N)c34)c(C(F)(F)F)cc12` [Compound 81, 2-amino-4-[4-[ethyl(methyl)amino]-8-fluoro-2-[[(2R,8S)-2-fluoro-1,2,3,5,6,7-hexahydropyrrolizin-8-yl]methoxy]-6-(trifluoromethyl)quinazolin-7-yl]-7-fluoro-benzothiophene-3-carbonitrile], the IC50 was under 0.1 µM in assay [1]; under 0.1 µM in assay [2]; 0.1 to 1 µM in assay [3]; 0.1 to 1 µM in assay [4]; under 0.1 µM in assay [5] (GP2d).

Turning to `CN(CCO)c1nc(OC[C@@]23CCCN2C[C@H](F)C3)nc2c(F)c(-c3ccc(F)c4sc(N)nc34)c(C(F)(F)F)cc12` [Compound 82], the IC50 in assay [1] fell in the range of 0.1 to 1 µM; in assay [2] it was 1 to 10 µM; in assay [3], 1 to 10 µM; in assay [4] it was 1 to 10 µM; in assay [5] (GP2d) it was 0.1 to 1 µM.

On to `CN(CC1(CO)CC1)c1nc(OC[C@@]23CCCN2C[C@H](F)C3)nc2c(F)c(-c3ccc(F)c4sc(N)c(C#N)c34)c(C(F)(F)F)cc12` [Compound 83], for which the IC50 was 0.1 to 1 µM in assay [1]; 0.1 to 1 µM in assay [2]; 0.1 to 1 µM in assay [3]; 0.1 to 1 µM in assay [4]; under 0.1 µM in assay [5] (GP2d).

Consider `CN(c1nc(OC[C@@]23CCCN2C[C@H](F)C3)nc2c(F)c(-c3ccc(F)c4sc(N)c(C#N)c34)c(C(F)(F)F)cc12)[C@H]1CCC[C@@H]1CO` [Compound 86], for which the IC50 in assay [1] was 0.1 to 1 µM; in assay [2], 0.1 to 1 µM; in assay [3], 1 to 10 µM; in assay [4], 1 to 10 µM; in assay [5] (GP2d) it was under 0.1 µM.

As to `CN(c1nc(OC[C@@]23CCCN2C[C@H](F)C3)nc2c(F)c(-c3ccc(F)c4sc(N)c(C#N)c34)c(C(F)(F)F)cc12)[C@@H]1CCC[C@H]1CO` [Compound 87], the IC50 in assay [1] was over 10 µM; in assay [2] it was over 10 µM; in assay [3], over 10 µM; in assay [4], over 10 µM; in assay [5] (GP2d) it was over 1 µM.

Take `CC(=O)NC1CN(c2nc(OC[C@@]34CCCN3C[C@H](F)C4)nc3c(F)c(-c4ccc(F)c5sc(N)c(C#N)c45)c(C(F)(F)F)cc23)C1` [Compound 88]: the IC50 in assay [1], in assay [2], in assay [3], in assay [4] and in assay [5] (GP2d) was 0.1 to 1 µM in each case.

As for `N#Cc1c(N)sc2c(F)ccc(-c3c(C(F)(F)F)cc4c(N5CCOCC5)nc(OC[C@@]56CCCN5C[C@H](F)C6)nc4c3F)c12` [Compound 90], the IC50 was 0.1 to 1 µM in assay [1]; 0.1 to 1 µM in assay [2]; 0.1 to 1 µM in assay [3]; 0.1 to 1 µM in assay [4]; under 0.1 µM in assay [5] (GP2d).

On to `CN(c1nc(OC[C@@]23CCCN2C[C@H](F)C3)nc2c(F)c(-c3ccc(F)c4sc(N)c(C#N)c34)c(C(F)(F)F)cc12)[C@@H]1CCS(=O)(=O)C1` [Compound 93], for which the 50% inhibitory concentration (IC50) is 0.1 to 1 µM in assay [1]; 0.1 to 1 µM in assay [2]; 0.1 to 1 µM in assay [3]; 0.1 to 1 µM in assay [4]; under 0.1 µM in assay [5] (GP2d).

As to `CN(c1nc(OC[C@@]23CCCN2C[C@H](F)C3)nc2c(F)c(-c3ccc(F)c4sc(N)c(C#N)c34)c(C(F)(F)F)cc12)[C@H]1CCS(=O)(=O)C1` [Compound 94, 2-amino-4-(4-(((S)-1,1-dioxidotetrahydrothiophen-3-yl)(methyl)amino)-8-fluoro-2-(((2R,7aS)-2-fluorotetrahydro-1H-pyrrolizin-7a(5H)-yl)methoxy)-6-(trifluoromethyl)quinazolin-7-yl)-7-fluorobenzo[b]thiophene-3-carbonitrile], the half-maximal inhibitory concentration (IC50) in assay [1] was 0.1 to 1 µM; in assay [2], 0.1 to 1 µM; in assay [3], 0.1 to 1 µM; in assay [4] it was 0.1 to 1 µM; in assay [5] (GP2d) it was under 0.1 µM.
